Assay results taken from ChEMBL document CHEMBL1201862, “PubChem BioAssay data set” (2004).
Calls of active or inactive are those of the source.

Tests used:
[1] = target: T1, Orexin/Hypocretin receptor type 1 (Homo sapiens, UniProt O43613); assay: Homogeneous Time Resolved Fluorescence (HTRF)-based cell-based high throughput dose response assay for antagonists of the orexin 1 receptor (OX1R; HCRTR1). [Related pubchem assays (depositor defined):AID434989, AID435008, AID463079, AID485270, AID492963, AID492964, AID492965, AID493232, AID504717, AID504718]; type: functional
T1 sequence (O43613 whole entry): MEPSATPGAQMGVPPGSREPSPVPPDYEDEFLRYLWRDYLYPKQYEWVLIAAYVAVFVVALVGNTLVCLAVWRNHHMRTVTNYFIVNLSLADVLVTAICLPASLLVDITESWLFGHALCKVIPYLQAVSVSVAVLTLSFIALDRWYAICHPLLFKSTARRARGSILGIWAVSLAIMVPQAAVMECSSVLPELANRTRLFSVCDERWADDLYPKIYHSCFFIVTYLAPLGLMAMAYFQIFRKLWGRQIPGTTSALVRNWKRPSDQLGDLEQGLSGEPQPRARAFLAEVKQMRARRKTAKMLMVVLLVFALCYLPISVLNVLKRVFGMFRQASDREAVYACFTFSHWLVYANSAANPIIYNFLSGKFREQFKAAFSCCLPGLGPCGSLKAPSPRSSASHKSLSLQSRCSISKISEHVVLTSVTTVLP

[2] = (§1) Counterscreen for antagonists of the orexin 1 receptor (OX1R; HCRTR1): Fluorescence-based cell-based high throughput dose response assay to identify antagonists of the parental CHO cell line. [Related pubchem assays (depositor defined):AID434989, AID435008, AID463079, AID485270, AID492963, AID492964, AID492965, AID493232, AID504699, AID504701]; type: functional
[3] = target: T1, Orexin/Hypocretin receptor type 1; assay: Fluorescence-based cell-based high throughput dose response assay for antagonists of the orexin 1 receptor (OX1R; HCRTR1). [Related pubchem assays (depositor defined):AID434989, AID435008, AID463079, AID485270, AID492963, AID492964, AID492965, AID493232, AID504717, AID504718]; type: functional
CHO-K1 = assay: as §1, with “Homogeneous time resolved fluorescence (HTRF)-based” for “Fluorescence-based”, “cell-based” for “cell-based high throughput”, “CHO-K1” for “CHO”; type: functional; settings: Cricetulus griseus;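 also: potency for inhibition of ATP-stimulated IP1 production as antagonists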
Apelin receptor = Apelin receptor (Homo sapiens, UniProt P35414); assay: apelin receptor antagonists, arrestin read-out – cell-based, luminescent, enzyme-fragment complementation, selectivity assay for CCR6 antagonist project, SAR follow-up (AID 588359); type: functional
Sequence of Apelin receptor (P35414 whole entry, the tested form may be a part): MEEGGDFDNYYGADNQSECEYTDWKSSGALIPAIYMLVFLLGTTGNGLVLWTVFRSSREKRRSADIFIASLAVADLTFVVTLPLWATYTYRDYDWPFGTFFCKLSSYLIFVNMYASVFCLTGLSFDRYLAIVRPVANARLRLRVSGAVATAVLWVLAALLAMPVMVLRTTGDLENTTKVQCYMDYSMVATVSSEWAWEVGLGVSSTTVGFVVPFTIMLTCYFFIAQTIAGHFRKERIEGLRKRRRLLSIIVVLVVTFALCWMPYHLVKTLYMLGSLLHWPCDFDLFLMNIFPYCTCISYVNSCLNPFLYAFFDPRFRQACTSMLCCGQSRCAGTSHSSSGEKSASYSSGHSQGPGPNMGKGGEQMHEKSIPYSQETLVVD

[4] = Luminescence Cell-Based Dose Retest to Confirm Inhibitors of Cancer Stem Cells. [Related pubchem assays (depositor defined):AID2717, AID2721]; type: functional; settings: Homo sapiens
Beta-galactosidase = Beta-galactosidase (Escherichia coli, UniProt Q8VNN2); assay: detection-enzyme interference by beta-gal modulators – biochemical, E. coli enzyme, set 3, artefact control for CCR6 antagonist project, dose response (AID 504712); type: functional
Sequence of Beta-galactosidase (Q8VNN2 whole entry): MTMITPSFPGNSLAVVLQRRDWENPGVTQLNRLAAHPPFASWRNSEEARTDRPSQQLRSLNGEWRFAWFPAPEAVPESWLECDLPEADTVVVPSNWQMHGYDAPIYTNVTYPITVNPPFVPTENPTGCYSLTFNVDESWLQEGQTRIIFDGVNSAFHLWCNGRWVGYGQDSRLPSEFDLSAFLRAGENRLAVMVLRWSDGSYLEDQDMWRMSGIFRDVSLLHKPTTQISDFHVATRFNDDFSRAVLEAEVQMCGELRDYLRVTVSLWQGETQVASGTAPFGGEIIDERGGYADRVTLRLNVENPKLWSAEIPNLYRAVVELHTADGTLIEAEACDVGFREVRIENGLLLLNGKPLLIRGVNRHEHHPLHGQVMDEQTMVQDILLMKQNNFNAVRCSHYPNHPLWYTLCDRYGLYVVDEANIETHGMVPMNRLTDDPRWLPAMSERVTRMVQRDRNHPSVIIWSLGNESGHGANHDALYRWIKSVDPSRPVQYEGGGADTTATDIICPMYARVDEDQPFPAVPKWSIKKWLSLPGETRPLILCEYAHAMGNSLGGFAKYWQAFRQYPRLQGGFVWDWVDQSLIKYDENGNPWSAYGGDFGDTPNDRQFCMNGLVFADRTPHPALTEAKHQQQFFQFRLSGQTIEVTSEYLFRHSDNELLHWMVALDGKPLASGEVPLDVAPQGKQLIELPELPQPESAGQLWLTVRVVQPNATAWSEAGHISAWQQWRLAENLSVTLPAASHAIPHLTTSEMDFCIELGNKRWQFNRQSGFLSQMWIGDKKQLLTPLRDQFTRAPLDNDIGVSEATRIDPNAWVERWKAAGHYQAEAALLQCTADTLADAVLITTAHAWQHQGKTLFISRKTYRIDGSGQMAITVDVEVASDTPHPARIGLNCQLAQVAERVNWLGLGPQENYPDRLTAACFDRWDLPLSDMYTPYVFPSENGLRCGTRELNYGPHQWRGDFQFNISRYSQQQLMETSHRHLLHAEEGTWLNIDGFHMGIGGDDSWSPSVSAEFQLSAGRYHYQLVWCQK

HEK293 [5] = assay: cells; settings: Homo sapiens
HEK293 [6] = assay: cells; settings: Homo sapiens; remark: listed apart in the source
Protein RecA = target: T2, Protein RecA (Mycobacterium tuberculosis, UniProt P9WHJ3); assay: Fluorescence Cell-Free Homogeneous Dose Retest to Identify Inhibitors of RecA-Intein Splicing Activity. [Related pubchem assays (depositor defined):AID2097, AID2223, AID489010, AID492950]; type: functional
T2 sequence (P9WHJ3 whole entry): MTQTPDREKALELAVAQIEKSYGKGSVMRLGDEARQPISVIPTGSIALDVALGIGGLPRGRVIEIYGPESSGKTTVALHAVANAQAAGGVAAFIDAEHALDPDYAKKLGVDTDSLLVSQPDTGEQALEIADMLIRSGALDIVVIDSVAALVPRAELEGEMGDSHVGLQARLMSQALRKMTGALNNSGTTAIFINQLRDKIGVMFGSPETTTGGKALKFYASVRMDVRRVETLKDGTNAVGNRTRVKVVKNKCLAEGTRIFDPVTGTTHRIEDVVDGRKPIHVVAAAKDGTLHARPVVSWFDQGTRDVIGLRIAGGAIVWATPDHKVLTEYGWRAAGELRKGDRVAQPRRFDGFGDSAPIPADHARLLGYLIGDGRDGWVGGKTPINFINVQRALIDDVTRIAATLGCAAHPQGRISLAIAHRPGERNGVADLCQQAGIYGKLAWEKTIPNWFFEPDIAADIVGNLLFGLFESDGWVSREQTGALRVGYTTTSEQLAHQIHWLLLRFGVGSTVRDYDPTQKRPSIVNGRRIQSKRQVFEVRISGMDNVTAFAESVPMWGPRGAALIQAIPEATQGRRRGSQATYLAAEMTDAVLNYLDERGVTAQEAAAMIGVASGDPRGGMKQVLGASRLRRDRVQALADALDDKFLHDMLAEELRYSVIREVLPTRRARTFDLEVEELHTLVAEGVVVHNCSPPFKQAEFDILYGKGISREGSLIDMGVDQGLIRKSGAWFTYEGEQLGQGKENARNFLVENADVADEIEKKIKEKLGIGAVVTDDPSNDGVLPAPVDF

[7] = target: T3, Replicative DNA helicase DnaB (Mycobacterium tuberculosis, UniProt P9WMR3); assay: DnaB intein splicing inhibitors, dose response, biochemical, cell-free fluorescence (AID 449749); type: functional
T3 sequence (P9WMR3 whole entry): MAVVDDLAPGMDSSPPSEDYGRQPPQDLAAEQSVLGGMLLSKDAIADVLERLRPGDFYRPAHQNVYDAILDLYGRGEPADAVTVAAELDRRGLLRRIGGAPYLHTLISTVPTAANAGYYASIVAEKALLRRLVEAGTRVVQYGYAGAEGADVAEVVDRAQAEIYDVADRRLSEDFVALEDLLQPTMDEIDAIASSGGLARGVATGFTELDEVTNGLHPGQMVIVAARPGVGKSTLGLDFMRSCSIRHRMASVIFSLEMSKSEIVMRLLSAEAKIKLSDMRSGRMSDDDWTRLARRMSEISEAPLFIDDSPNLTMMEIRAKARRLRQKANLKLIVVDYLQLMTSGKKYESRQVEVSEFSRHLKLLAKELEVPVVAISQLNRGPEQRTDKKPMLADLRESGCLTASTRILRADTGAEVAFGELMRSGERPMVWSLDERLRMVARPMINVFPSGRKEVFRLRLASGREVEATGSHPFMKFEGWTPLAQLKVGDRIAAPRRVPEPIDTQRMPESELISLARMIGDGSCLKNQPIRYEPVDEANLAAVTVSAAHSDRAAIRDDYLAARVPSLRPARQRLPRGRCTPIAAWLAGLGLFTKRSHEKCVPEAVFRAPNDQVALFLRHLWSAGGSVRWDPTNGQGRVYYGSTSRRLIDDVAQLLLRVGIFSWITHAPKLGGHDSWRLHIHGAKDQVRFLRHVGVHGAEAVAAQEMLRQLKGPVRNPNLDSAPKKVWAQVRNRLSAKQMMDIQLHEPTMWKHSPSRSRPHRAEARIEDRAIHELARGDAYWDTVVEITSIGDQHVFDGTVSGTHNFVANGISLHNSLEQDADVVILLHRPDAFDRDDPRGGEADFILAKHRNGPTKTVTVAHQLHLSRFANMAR

[8] = target: Induced myeloid leukemia cell differentiation protein Mcl-1 (Homo sapiens, UniProt Q07820); type: functional
Sequence of Induced myeloid leukemia cell differentiation protein Mcl-1 (Q07820 whole entry): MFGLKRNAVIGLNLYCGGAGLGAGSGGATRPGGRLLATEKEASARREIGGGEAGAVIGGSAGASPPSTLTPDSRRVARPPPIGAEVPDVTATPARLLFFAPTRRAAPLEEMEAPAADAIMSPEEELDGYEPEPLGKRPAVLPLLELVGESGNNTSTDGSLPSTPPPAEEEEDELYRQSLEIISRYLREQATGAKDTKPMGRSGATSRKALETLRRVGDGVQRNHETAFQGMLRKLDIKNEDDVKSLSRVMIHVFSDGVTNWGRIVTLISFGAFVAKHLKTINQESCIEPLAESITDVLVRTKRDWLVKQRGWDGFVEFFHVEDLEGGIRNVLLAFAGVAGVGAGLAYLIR

Paired box protein Pax-8 = Paired box protein Pax-8 (Homo sapiens, UniProt Q06710); assay: PAX8 transcriptional activity inhibition in RMG-I – RMG-I cells, luciferase, cherry-pick, dose response (AID 687027); type: functional, cell-based;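 also: luciferase reporter driven by Pax8 target thyroperoxidase promoter measured by SteadyGlo luminescence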
Sequence of Paired box protein Pax-8 (Q06710 whole entry): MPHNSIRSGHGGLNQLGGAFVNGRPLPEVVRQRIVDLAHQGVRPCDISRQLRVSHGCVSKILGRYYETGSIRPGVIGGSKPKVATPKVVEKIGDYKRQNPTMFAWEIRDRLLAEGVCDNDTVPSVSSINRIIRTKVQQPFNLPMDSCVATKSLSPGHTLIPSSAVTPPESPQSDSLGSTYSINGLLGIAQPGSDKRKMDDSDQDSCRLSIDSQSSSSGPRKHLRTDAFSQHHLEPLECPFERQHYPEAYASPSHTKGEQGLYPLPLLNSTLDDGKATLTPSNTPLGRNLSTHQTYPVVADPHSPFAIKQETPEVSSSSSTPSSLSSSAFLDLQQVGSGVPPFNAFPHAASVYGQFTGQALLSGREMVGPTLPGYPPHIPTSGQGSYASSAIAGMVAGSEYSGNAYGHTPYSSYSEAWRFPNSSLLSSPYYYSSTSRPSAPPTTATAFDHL

For `Cc1ccc(O)c(NC(=O)c2cc(-c3ccccc3Cl)on2)c1`, the IC50 [1] was 7.23 µM (active), the IC50 [2] was > 49.8 µM (inactive) and the IC50 [3] was > 49.8 µM (inactive). For the same compound, the IC50 (CHO-K1) was > 66.3 µM (inactive).

In the case of `Cc1sc2nc(SCCN(C)C)n(-c3ccccc3)c(=O)c2c1-c1ccc(F)cc1`, the IC50 (Apelin receptor) was 30.9 µM (inactive), the AC50 [4] was 7.17 µM (active) and the IC50 (Beta-galactosidase) was > 66.6 µM (inactive).

In the case of `CCCCC(=O)NC(=S)Nc1cccc(Cl)c1N1CCCCC1`, the EC50 (HEK293 [5]) was > 59.7 µM (inactive) and the EC50 (HEK293 [6]) was > 59.7 µM (inactive).

In the case of `CCN(CC)S(=O)(=O)c1cc(NC(=O)Cn2ncc(Cl)c(Cl)c2=O)ccc1C`, the EC50 (HEK293 [5]) was > 59.6 µM (inactive), the EC50 (Protein RecA) was 14.5 µM (active) and the EC50 (HEK293 [6]) was > 59.6 µM (inactive). For the same compound, the AC50 [7] was 11.8 µM (active), the IC50 [8] was 4.21 µM (active) and the AC50 (Paired box protein Pax-8) was 4.84 µM (active).
